Source: patent US10407415B2, “Dihydrate of benzothiophene compound or of a salt thereof, and process for producing the same” (OTSUKA PHARMACEUTICAL CO., LTD., priority 2012, dated 2019)

How the values were obtained:
[1] = Measurement of drug residue in muscle; assay type: in vivo; conditions: rat, injectable preparation 100 mg/mL (finely ground, mean particle diameter 3.5 μm) intramuscularly injected at 25 mg/kg, dissected 56 days after the injection
Protocol: The dihydrate of the present invention (150 mg) was dispersed to the suspension medium (1 mL) described below, and pulverized using 5 mm zirconia beads (1.2 g, pulverization time: 30 min) while being stirred with a stirrer. The suspension medium used for pulverization was a solution containing 0.832% (w/v) sodium carboxymethylcellulose (CMC-Na), 4.16% (w/v) mannitol, and 0.074% (w/v) sodium dihydrogenphosphatemonohydrate. The pH thereof was adjusted to 7.0 by adding an appropriate amount of sodium hydroxide. The concentration of each preparation was adjusted to 100 mg/mL using this medium.
An anhydride was subjected to pulverization in the same manner to obtain an anhydride (finely ground product) having a mean particle diameter of 3.5 μm. The mean particle diameter was measured using a laser diffraction particle size analyzer (SALD-3000) or SALD-3100, manufactured by Shimadzu Corporation).
Injectable preparations each containing the dihydrate of the present invention (finely ground product, mean particle diameter: 3.5 μm) or an anhydride (finely ground product, mean particle diameter: 3.5 μm) were obtained by the procedure described above.
Each injectable preparation thus obtained was intramuscularly injected into a rat in a dosage of 25 mg/kg. Each injectable preparation was injected into three rats.

[2] = Pharmacokinetics test using a dog (intramuscular injectable preparation); assay type: in vivo; conditions: 10 mg/kg calculated as the anhydride
Protocol: Injectable preparations containing the dihydrate of the present invention as an active ingredient were formulated as shown in Table 3. Each of the injectable preparations was injected into the thigh muscle of a dog in such a dosage that 10 mg/kg of active ingredient calculated as the anhydride of the present invention was contained. FIG. 14 is a graph showing the mean blood concentration-time profile after the injection. As is clear from FIG. 14, the sustained release property can be stably maintained for more than 30 days from the injection.

SMILES	The number having residue in muscle (Number having residue/Total) [1]	time for which the sustained release property is stably maintained (mean blood concentration-time profile, FIG. 14) ([2]; injected into the thigh muscle, Table 3 formulation)	Stimulation at the injection site ([2]; thigh muscle injection, observed 7 days after the injection)	The number having residue in muscle (Number having residue/Total) ([1]; dihydrate)
O=c1ccc2ccc(OCCCCN3CCN(c4cccc5sccc45)CC3)cc2[nH]1 [Anhydride, 7-[4-(4-benzo[b]thiophen-4-yl-piperazin-1-yl)butoxy]-1H-quinolin-2-one anhydride, reference compound]	0/3			
O=c1ccc2ccc(OCCCCN3CCN(c4cccc5sccc45)CC3)cc2[nH]1 [Dihydrate, 7-[4-(4-benzo[b]thiophen-4-yl-piperazin-1-yl)butoxy]-1H-quinolin-2-one dihydrate]		more than 30 days	low	3/3
